According to patent US20110082098A1, “NOVOBIOCIN ANALOGUES AND TREATMENT OF POLYCYSTIC KIDNEY DISEASE” (UNIVERSITY OF KANSAS, priority 2009, published 2011):
Entries after “also recorded” stand apart in the source; their conditions may differ.

What was measured:
Pkd1−/− embryonic mice = Pkd1−/− embryonic mice with ADPKD; cited from earlier work
murine pkd1-null cells = conditions: cited from earlier work
mTOR pathway = assay: Inhibition of mTOR pathway in EGF stimulated ADPKD cells by Western blot; assay type: cell-based, human
Experimental: (§1) Human ADPKD cells were plated at a density of 1×10^5 cells per well in medium containing 1% FBS in a 6-well plate. Cells were serum-starved for 24 hours and treated with 25 ng/ml EGF to stimulate cell proliferation, then treated with increasing concentrations of KU-174. As a control for inhibition of the mTOR pathway, ADPKD cells were stimulated by EGF and treated with Rapamycin or LY294002. After 24 or 48 hours, cytoplasmic protein extracts were prepared by lysing cells in ice-cold lysis buffer (10 mM Tris-Cl pH 7.5, 150 mM NaCl, 2 mM EDTA pH 8.0, 1% Triton X-100, 0.5% NP-40, 25 mM glycerol 2-phosphate, 1 mM sodium orthovanadate, 1 mM phenylmethylsulfonyl fluoride, and 0.1% v/v Sigma protease inhibitor cocktail). Nuclei and other Triton-insoluble components were removed by high speed centrifugation. Protein concentration was measured using the Pierce BCA assay kit. 20 μg total protein was boiled with SDS sample buffer and fractionated on 7.5, 10 or 12.5% SDS-PAGE gels. Proteins were transferred to PVDF membranes and non-specific binding blocked with 5% powdered milk in TBS-T (10 mM Tris-Cl pH 7.5, 150 mM NaCl, and 0.1% Tween 20) for 1 h at room temperature. Blocked membranes were incubated with primary antibodies in 5% powdered milk or 5% BSA (for phospho-proteins) in TBS-T overnight at 4° C. Membranes were then washed three times with TBS-T and incubated with alkaline phosphatase-conjugated secondary antibodies in 5% milk in TBS-T for 30 min at room temperature. The membranes were washed three times with TBS-T, and protein bands were visualized using the CDP-star detection reagent (GE healthcare). Intensity was detected and quantitatively analyzed by the Fluor-S MAX multi-imager system (Bio-Rad).
Human ADPKD cells were plated at a density of 1×10^5 cells per well in medium containing 1% FBS in a 6-well plate. Cells were serum-starved for 24 hours and treated with 25 ng/ml EGF to stimulate cell proliferation, then treated with increasing concentrations of KU-174. As a control for inhibition of the mTOR pathway, ADPKD cells were stimulated by EGF and treated with Rapamycin or LY294002, (an inhibitor of phosphoinositide-3-kinases, PI3Ks). After 24 or 48 hours, cells were lysed and 20 μg total cell lysate analyzed by Western blotting. Blots were probed with antibodies against p-Akt (S473), Akt, p-TSC2 (S939), TSC2, p-mTOR (S2448), mTOR, p-S6K (T412 and T389; phospho-p70 S6 Kinase phosphorylated at T389 or T412) and S6K (p70 S6 kinase; p70S6K1). […] In the 1 μM KU-174 treated cell lysates, p-Akt was decreased by 64%, p-mTOR by 56%, and p-S6K isoforms p85 and p70 by 75% compared with control EGF treated cells and normalized with respect to the corresponding total protein (n=3). There was no change in p-TSC2 levels. […] The figures represent results from independent experiments using primary human ADPKD cells from three different kidneys.

human ADPKD cells = assay: Microcyst assay in collagen gel matrix; assay type: cell-based
Experimental: Microcyst assay was performed as described previously by Yamaguchi, T., et al., Calcium restores a normal proliferation phenotype in human polycystic kidney disease epithelial cells. J Am Soc Nephrol, 2006. 17(1): p. 178-87. Primary cultures of human ADPKD cells (4×10^3 cells/well) were dispersed within an ice-cold type I collagen matrix (Vitrogen; Collagen Corp., Palo Alto, Calif.) in wells of a 96-well culture plate. Warming the plate to 37° C. caused polymerization of the collagen, trapping the cells within the gel. A defined medium (DMEM/F12 with ITS, 5×10^−8M hydrocortisone, and 5×10^−5 M triiodothyronine) supplemented with 5 μM forskolin and 5 ng/ml EGF was added for 3 days to initiate cyst growth. Forskolin (FSK) is a small molecule agonist of adenylyl cyclase, the enzyme that makes cAMP. Thus, FSK treatment of cells increases the levels of intracellular cAMP. Fresh media containing EGF and forskolin plus 1 μM or 5 μM KU-174 were added for an additional 5-7 days. […] Gels containing cysts were fixed in 1% formaldehyde and cyst diameters were measured using a morphometric analysis system. Outer diameters of cross-sectional images of spherical cysts with distinct lumens were measured using an inverted microscope with a digital camera and video analysis software. The total surface area (SA) of the cysts within each well was calculated from the individual cyst diameters (cysts≧100 μm). KU-174 inhibits microcyst formation by ADPKD cells in a collagen gel matrix.

ERK 1/2 = assay: Inhibition of p-ERK in EGF stimulated ADPKD cells by Western blot; assay type: cell-based, human; conditions: for decrease in P-Erk (phosphorylation of ERK 1/2): EGF-stimulated ADPKD cells
Experimental: as §1

[1] = tested on: Human ADPKD cyst-lining epithelial cells; assay: Cell proliferation assay (Promega Cell Titer 96 MTT); assay type: cell-based; conditions: 0.1, 0.5, 1 uM KU-174 for 72 h
Experimental: Primary cultures of human ADPKD cyst-lining epithelial cells were established as described in Yamaguchi, T., et al., Calcium restores a normal proliferation phenotype in human polycystic kidney disease epithelial cells. J Am Soc Nephrol, 2006. 17(1): p. 178-87. Cystic tissue from ADPKD kidneys were minced and digested overnight in DMEM/F12 (1:1) mixture that contained 220 IU/ml type IV collagenase and 100 IU/ml penicillin G and 0.1 mg/ml streptomycin (P/S) (13). Collagenase digestion was stopped by the addition of FBS. […]
The novobiocin analog KU-174 was studied to determine the effect on cAMP and EGF-stimulated proliferation of ADPKD cyst-lining epithelial cells. Cell proliferation was determined by the Promega Cell Titer 96 MTT assay method as described in Yamaguchi, T., et al., Calcium restores a normal proliferation phenotype in human polycystic kidney disease epithelial cells. […] After 72 hours of treatment, cell proliferation was measured by adding the MTT assay reagent and stopping the reaction four hours later. Absorbance was read on a spectrophotometer at 570 nm. Optical densities were measured using a spectrophotometer. In each group, results were expressed as a percentage of the control group (not treated with KU-174).

[2] = tested on: Hsp90 client proteins CFTR, C-Raf, cdk4, ErbB2 and Akt; assay: Hsp90 client protein levels in EGF stimulated human ADPKD cells by Western blot; assay type: cell-based
Experimental: as §1
Proteins from 20 μg total cell lysate were analyzed by Western blotting. Blots were probed with antibodies against Hsp90 and client proteins CFTR, C-Raf, cdk4, ErbB2 and Akt. GAPDH served as the internal control.

[3] = tested on: Pkd1+/− mouse metanephric kidneys; assay: Metanephric organ culture; conditions: embryonic day 15.5 kidneys, 100 μM cAMP, 10 μM KU-174, four days
Description: Pkd1^m1Bei mice were obtained from the Mutant Mouse Regional Resource Center (University of North Carolina, Chapel Hill, N.C.) and were stabilized onto a C57BL/6 background (>10 backcrosses). This mouse has a point mutation (T to G at 9248 bp) that causes an M to R substitution that affects the first transmembrane domain of polycystin-1 as described by Herron, B. J., et al., Efficient generation and mapping of recessive developmental mutations using ENU mutagenesis. Nat Genet, 2002. 30(2): p. 185-9.
Mouse metanephric kidneys were cultured according to methods described in Magenheimer, B. S., et al., Early embryonic renal tubules of wild-type and polycystic kidney disease kidneys respond to cAMP stimulation with cystic fibrosis transmembrane conductance regulator/Na(+),K(+),2Cl(−) Co-transporter-dependent cystic dilation. J Am Soc Nephrol, 2006. 17(12): p. 3424-37. Metanephroi were dissected from Pkd1+/− embryonic mice and placed on transparent Falcon […] cell culture inserts. […] Upon culturing (day 0) and approximately 24 h later (day 1) and each day after (days 2 to 4), kidneys were photographed using a 2× or 4× objective, and the images were acquired and analyzed using the analySIS imaging program (Soft Imaging System, Munster, Germany). […]

[4] = 48 h, 1 μM KU-174, compared to control EGF treated cells

CC(C)[C@]12O[C@H]1[C@@H]1O[C@]13[C@]1(O[C@H]1C[C@H]1C4=C(CC[C@@]13C)C(=O)OC4)[C@@H]2O [Triptolide]
cyst formation (Pkd1−/− embryonic mice): inhibit cyst formation
cell growth (murine pkd1-null cells): cause cell growth arrest

COc1cccc(-c2cc(C(=O)Nc3cc4ccc(O[C@@H]5OC(C)(C)[C@H](OC)[C@@H](O)[C@H]5O)c(OC)c4oc3=O)ccc2OC)c1 [KU-174, N-(7-((2S,3R,4S,5R)-3,4-dihydroxy-5-methoxy-6,6-dimethyltetrahydro-2H-pyran-2-yloxy)-8-methoxy-2-oxo-2H-chromen-3-yl)-3′,6-dimethoxybiphenyl-3-carboxamide]
p-S6K (mTOR pathway; 24 h, 1 μM KU-174): slight decrease
change in phosphoproteins (P-mTOR, P-Akt, P-TSC2, P-S6K) (mTOR pathway; 24 h of treatment, 50 nM to 1 μM KU-174, EGF-stimulated ADPKD cells): no change
decrease in P-Akt (S473) (mTOR pathway; [4]): 64%
decrease in P-S6K (isoforms p85 and p70) (mTOR pathway; [4]): 75%
decrease in P-mTOR (S2448) (mTOR pathway; [4]): 56%
decreasing the phosphoproteins (mTOR pathway; 48 h, both 0.5 and 1 μM KU-174): effective
P-TSC2 (S939) levels (mTOR pathway; EGF-stimulated ADPKD cells, KU-174 up to 1 μM, 48 h): no change
total Akt levels (mTOR pathway; at the concentrations examined (up to 1 μM KU-174)): did not appear to decrease
inhibition in cyst growth (total cyst surface area per well) (human ADPKD cells; 1 μM KU-174, EGF and forskolin, p<0.01): significant inhibition
inhibition of cyst-formation induced by EGF and forskolin (human ADPKD cells; 1 μM KU-174, n=6): more than 3 fold
cyst formation (human ADPKD cells; 5 μM KU-174, EGF and forskolin, p<0.01): completely eliminated
microcyst formation by ADPKD cells in a collagen gel matrix (human ADPKD cells; EGF and forskolin, 1 μM or 5 μM KU-174): dose-dependent inhibition; also recorded: reduces; also recorded: inhibits
decrease in P-Erk (phosphorylation of ERK 1/2) (ERK 1/2; 0.5 μM KU-174, 48 h): 70%
total Erk levels (ERK 1/2; 0.5 μM and 1 μM KU-174, EGF-stimulated ADPKD cells): remained virtually unchanged
decrease in P-Erk (phosphorylation of ERK 1/2) (ERK 1/2; 1 μM KU-174, 48 h): 80%
inhibition of p-ERK (ERK 1/2; increasing concentrations of KU-174, EGF-stimulated ADPKD cells): dose-dependent inhibition
proliferation of EGF-stimulated ADPKD cyst-lining epithelial cells (MTT assay) ([1]; 25 ng/ml EGF): dose-dependent decrease; also recorded: significantly inhibited
proliferation of cAMP-stimulated ADPKD cyst-lining epithelial cells (MTT assay) ([1]; 100 μM cAMP): dose-dependent decrease; also recorded: significantly inhibited
total levels of C-Raf ([2]; 24 h, 1 μM KU-174): decreased
total levels of CFTR ([2]; 24 h, 1 μM KU-174): decreased
all the client proteins examined (CFTR, C-Raf, cdk4, ErbB2) ([2]; 48 h, both 0.5 and 1 μM KU-174): effective in decreasing
levels of the Hsp90 client proteins CFTR, ErbB2, c-Raf and Cdk4 ([2]; dose and time-dependent manner, ADPKD cells): decreases
cyst burden / cyst formation in cAMP-treated metanephric kidneys [3]: reduces the cyst burden; also recorded: reduction in cyst burden; also recorded: reduced cyst formation
